# US11679108B2, “Aromatic heterocyclic compound, and pharmaceutical composition and use thereof” (GUANGZHOU HENOVCOM BIOSCIENCE CO., LTD., priority 2018, dated 2023)
# Molecular target: T1, ATX in human plasma (Homo sapiens, UniProt Q13822)
# T1 construct: blank plasma was derived from at least 6 individual people; from tissue; host or cells: human plasma (pooled from at least 6 individuals)
# Experiment: Analysis in vitro: detection of LPA in human plasma for screening activity (LPA 18:2 by LC/MS/MS)
# Format: biochemical
# Settings: incubated 2 hours at 37° C., LPA 18:2 detected by LC/MS/MS
# Excerpt: Analysis In Vitro: Detection of LPA in Human Plasma for Screening Activity
# Principle: LPC in plasma being used as a substrate, the produced LPA 18:2 (LPA 17:0 as an internal standard) is detected by LC/MS/MS quantitative analysis. At different concentrations of the compounds to be tested, the percentage of residual activity is obtained by the ratio of the production of LPA18:2 to that in the absence of the compounds to be tested, thereby calculating IC50 values.
# Experiment procedures: blank plasma was derived from at least 6 individual people. The compounds to be tested were diluted from stock solution in 3-fold dilution gradient, to produce 8 concentrations of working solution (with zero) in series. 10 μL of the melting blank plasma samples were taken and iced methanol solution containing internal standard (LPA 17:0) was added to it, so that the mixture directedly performed protein precipitation, which served as a system control sample. 2 μL of the working solution in different concentration was taken and 198 μL of blank human plasma was added, which was incubated with a concentration of 0 to 10 μM. The samples were placed at an incubater containing 5% CO2 at 37° C., and incubated for 2 hours. When the incubation was completed, 10 μL of plasma sample was taken and appropriate volume of iced methanol solution containing internal standard (LPA 17:0) was added into it, so that the mixture directedly performed protein precipitation. The precipitation was centrifuged to take supernatant. LPA 18:2 was detected by LC/MS/MS and IC50 values were analyzed and calculated by software, seeing Table 2.
row,Structure (SMILES),IC50 [nM]
1,"CCc1nc2sc(N3CCN(CC(=O)N4CC(O)C4)[C@@H](C)C3)nn2c1N(C)c1nc(-c2ccc(F)cc2)c(C#N)s1 [Example 68, (S)-2-{[6-ethyl-2-(4-(2-(3-hydroxyazetidin-1-yl)-2-oxoethyl)-3-methylpiperazin-1-yl)imidazo[2,1-b][1,3,4]thiadiazol-5-yl](methyl)amino}-4-(4-fluorophenyl)thiazole-5-carbonitrile]",0.01 to 100
2,"CCc1nc2sc(N3CCC4(CN(CC(=O)N5CC(C#N)C5)C4)C3)nn2c1N(C)c1nc(-c2ccc(F)cc2)c(C#N)s1 [Example 55, 2-{[6-ethyl-2-(2-(2-(3-cyanoazetidin-1-yl)-2-oxoethyl)-2,6-diazaspiro[3.4]octane-6-yl)imidazo[2,1-b][1,3,4]thiadiazol-5-yl](methyl)amino}-4-(4-fluorophenyl)thiazole-5-carbonitrile]",100 to 500
3,"CCc1nc2sc(N3CC4(CN(C(N)=O)C4)C3)nn2c1N(C)c1nc(-c2ccc(F)cc2)c(C#N)s1 [Example 9, 6-{5-[(5-cyano-4-(4-fluorophenyl)thiazol-2-yl)(methyl)amino]-6-ethylimidazo[2,1-b][1,3,4]thiadiazol-2-yl}-2,6-diazaspiro[3.3]heptane-2-carboxamide]",500 to 1000
4,"CCc1nc2sc(N3CC[C@@H](N(C)C(C)C(=O)N4CC(O)C4)C3)nn2c1N(C)c1nc(-c2ccc(F)cc2)c(C#N)s1 (stereo partly drawn) [Example 78, 2-{[6-ethyl-2-((3R)-3-((1-(3-hydroxyazetidin-1-yl)-1-oxopropan-2-yl)(methyl)amino)pyrrolidin-1-yl)imidazo[2,1-b][1,3,4]thiadiazol-5-yl](methyl)amino}-4-(4-fluorophenyl)thiazol-5-carbonitrile]",0.01 to 100
5,"CCc1nc2sc(N3CC4CCN(CC(=O)N5CC(O)C5)C4C3)nn2c1N(C)c1nc(-c2ccc(F)cc2)c(C#N)s1 (stereo not shown) [Example 62, 2-{[6-ethyl-2-(1-(2-(3-hydroxyazetidin-1-yl)-2-oxoethyl)hexahydropyrrolo[3,4-b]pyrrol-5(1H)-yl)imidazo[2,1-b][1,3,4]thiadiazol-5-yl](methyl)amino}-4-(4-fluorophenyl)thiazole-5-carbonitrile]",100 to 500
6,"CCc1nc2sc(N3CC4CC3CO4)nn2c1N(C)c1nc(-c2ccc(F)cc2)c(C#N)s1 (stereo not shown) [Example 60, 2-{[2-(2-oxa-5-azabicyclo[2.2.1]heptan-5-yl)-6-ethylimidazo[2,1-b][1,3,4]thiadiazol-5-yl](methyl)amino}-4-(4-fluorophenyl)thiazole-5-carbonitrile]",≥ 1000
7,"CCc1nc2sc(N3CC[C@@H](NCC(=O)N4CC(O)C4)C3)nn2c1N(C)c1nc(-c2ccc(F)cc2)c(C#N)s1 [Example 80, (R)-2-{[6-ethyl-2-(3-((2-(3-hydroxyazetidin-1-yl)-2-oxoethyl)amino)pyrrolidin-1-yl)imidazo[2,1-b][1,3,4]thiadiazol-5-yl](methyl)amino}-4-(4-fluorophenyl)thiazol-5-carbonitrile]",0.01 to 100
8,"CCc1nc2sc(N3CC4CCC(C3)N4CC(=O)N3CC(O)C3)nn2c1N(C)c1nc(-c2ccc(F)cc2)c(C#N)s1 [Example 70, 2-{[6-ethyl-2-(8-(2-(3-hydroxyazetidin-1-yl)-2-oxoethyl)-3,8-diazabicyclo[3.2.1]octan-3-yl)imidazo[2,1-b][1,3,4]thiadiazol-5-yl](methyl)amino}-4-(4-fluorophenyl)thiazole-5-carbonitrile]",100 to 500
9,"CCc1nc2sc(N3CC4(CCN(CC(=O)N5CC(O)C5)C4)C3)nn2c1N(C)c1nc(-c2ccc(F)cc2)c(C#N)s1 [Example 52, 2-{[6-ethyl-2-(6-(2-(3-hydroxyazetidin-1-yl)-2-oxoethyl)-2,6-diazaspiro[3.4]octan-2-yl)imidazo[2,1-b][1,3,4]thiadiazol-5-yl](methyl)amino}-4-(4-fluorophenyl)thiazole-5-carbonitrile]",100 to 500
10,"CCc1nc2sc(N3C[C@@H]4C[C@H]3CN4CC(=O)N3CC(C#N)C3)nn2c1N(C)c1nc(-c2ccc(F)cc2)c(C#N)s1 [Example 59, 2-{[6-ethyl-2-((1S,4S)-5-(2-(3-cyanoazetidin-1-yl)-2-oxoethyl)-2,5-diazabicyclo[2.2.1]heptan-2-yl)imidazo[2,1-b][1,3,4]thiadiazol-5-yl](methyl)amino}-4-(4-fluorophenyl)thiazole-5-carbonitrile]",100 to 500
11,"CCc1nc2sc(N3CCN(CC(=O)N4CC(O)C4)C[C@@H]3C)nn2c1N(C)c1nc(-c2ccc(F)cc2)c(C#N)s1 [Example 67, (S)-2-{[6-ethyl-2-(4-(2-(3-hydroxyazetidin-1-yl)-2-oxoethyl)-2-methylpiperazin-1-yl)imidazo[2,1-b][1,3,4]thiadiazol-5-yl](methyl)amino}-4-(4-fluorophenyl)thiazole-5-carbonitrile]",0.01 to 100
12,"CCc1nc2sc(N3CCN(C(N)=O)CC3)nn2c1N(C)c1nc(-c2ccc(F)cc2)c(C#N)s1 [Example 7, 4-{5-[(5-cyano-4-(4-fluorophenyl)thiazol-2-yl)(methyl)amino]-6-ethylimidazo[2,1-b][1,3,4]thiadiazol-2-yl}piperazine-1-carboxamide]",500 to 1000
13,CCOC(=O)CN(C)C1CCN(c2nn3c(N(C)c4nc(-c5ccc(F)cc5)c(C#N)s4)c(CC)nc3s2)C1 (stereo not shown) [Example 48],100 to 500
14,"CCc1nc2sc(N3CC4(CCN(CC(=O)N5CC(C#N)C5)C4)C3)nn2c1N(C)c1nc(-c2ccc(F)cc2)c(C#N)s1 [Example 53, 2-{[6-ethyl-2-(6-(2-(3-cyanoazetidin-1-yl)-2-oxoethyl)-2,6-diazaspiro[3.4]octane-2-yl)imidazo[2,1-b][1,3,4]thiadiazol-5-yl](methyl)amino}-4-(4-fluorophenyl)thiazole-5-carbonitrile]",0.01 to 100
15,"CCc1nc2sc(N3C[C@@H]4C[C@H]3CN4CC(=O)N3CC(O)C3)nn2c1N(C)c1nc(-c2ccc(F)cc2)c(C#N)s1 [Example 58, 2-{[6-ethyl-2-((1S,4S)-5-(2-(3-hydroxyazetidin-1-yl)-2-oxoethyl)-2,5-diazabicyclo[2.2.1]heptan-2-yl)imidazo[2,1-b][1,3,4]thiadiazol-5-yl](methyl)amino}-4-(4-fluorophenyl)thiazole-5-carbonitrile]",0.01 to 100
16,"CCc1nc2sc(N3CCC(NC(=O)N4CC(O)C4)C3)nn2c1N(C)c1nc(-c2ccc(F)cc2)c(C#N)s1 (stereo not shown) [Example 64, N-{1-[5-((5-cyano-4-(4-fluorophenyl)thiazol-2-yl)(methyl)amino)-6-ethylimidazo[2,1-b][1,3,4]thiadiazol-2-yl]pyrrolidin-3-yl}-3-hydroxyazadetin-1-carboxamide]",0.01 to 100
17,"CCc1nc2sc(N3CC4CN(CC(=O)N5CC(C#N)C5)CC4C3)nn2c1N(C)c1nc(-c2ccc(F)cc2)c(C#N)s1 (stereo not shown) [Example 57, 2-{[6-ethyl-2-(5-(2-(3-cyanoazetidin-1-yl)-2-oxoethyl)hexahydropyrrolo[3,4-c]pyrrol-2(1H)-yl)imidazo[2,1-b][1,3,4]thiadiazol-5-yl](methyl)amino}-4-(4-fluorophenyl)thiazole-5-carbonitrile]",100 to 500
18,"CCc1nc2sc(N3CC4CN(CC(=O)N5CC(O)C5)CC4C3)nn2c1N(C)c1nc(-c2ccc(F)cc2)c(C#N)s1 (stereo not shown) [Example 56, 2-{[6-ethyl-2-(5-(2-(3-hydroxyazetidin-1-yl)-2-oxoethyl)hexahydropyrrolo[3,4-c]pyrrol-2(1H)-yl)imidazo[2,1-b][1,3,4]thiadiazol-5-yl](methyl)amino}-4-(4-fluorophenyl)thiazole-5-carbonitrile]",0.01 to 100
19,"CCc1nc2sc(N3C[C@@H](C)N(CC(=O)N4CC(O)C4)[C@@H](C)C3)nn2c1N(C)c1nc(-c2ccc(F)cc2)c(C#N)s1 [Example 72, cis-2-{[6-ethyl-2-(4-(2-(3-hydroxyazetidin-1-yl)-2-oxoethyl)-3,5-dimethylpiperazin-1-yl)imidazo[2,1-b][1,3,4]thiadiazol-5-yl](methyl)amino}-4-(4-fluorophenyl)thiazole-5-carbonitrile]",100 to 500
20,"CCc1nc2sc(N3CCC(N(C)CC(=O)O)C3)nn2c1N(C)c1nc(-c2ccc(F)cc2)c(C#N)s1 (stereo not shown) [Example 49, 2-{[1-(5-((5-cyano-4-(4-fluorophenyl)thiazol-2-yl)(methyl)amino)-6-ethylimidazo[2,1-b][1,3,4]thiadiazol-2-yl)pyrrolidin-3-yl](methyl)amino}acetic acid]",500 to 1000
21,CCc1nc2sc(N3CCC(N(C)CC(=O)NCC(=O)O)C3)nn2c1N(C)c1nc(-c2ccc(F)cc2)c(C#N)s1 (stereo not shown) [Example 51],100 to 500
22,"CCc1nc2sc(N3CCN(CC(=O)N4CC(O)C4)C[C@H]3C)nn2c1N(C)c1nc(-c2ccc(F)cc2)c(C#N)s1 [Example 66, (R)-2-{[6-ethyl-2-(4-(2-(3-hydroxyazetidin-1-yl)-2-oxoethyl)-2-methylpiperazin-1-yl)imidazo[2,1-b][1,3,4]thiadiazol-5-yl](methyl)amino}-4-(4-fluorophenyl)thiazole-5-carbonitrile]",0.01 to 100
